Among the data in patent US5298513A, “Substituted basic 2-aminotetralin in pharmaceuticals” (Bayer Aktiengesellschaft, priority 1986, dated 1994) are Ki, Effect antagonistic and Effect agonistic values, retold here.

Each structure is given as a SMILES string. Structures can show the parent of a compound that is named as a salt.

One assay has as its target 5-HT1 receptor. Kind of assay: Affinity to the 5-HT1 receptor (receptor binding, calf hippocampus membrane preparations, 3H-serotonin). The settings on record: calf hippocampus membranes, 3H-serotonin radioligand. As for the experimental part: A.) Affinity to the 5-HT1 Receptor […] The values specified are data which were determined from receptor binding studies using calf hippocampus membrane preparations. 3H-serotonin was used for this purpose as radioactively labelled ligand.

Assay [1] deals with contraction, caused by serotonin, of the arteria basilaris. The experiment in a line: Serotonin-agonistic/antagonistic action on the contraction, caused by serotonin, of the arteria basilaris of the dog. In kind it is cell-based. The settings on record: for Effect antagonistic: suppression of serotonin-induced contraction after pre-treatment; for Effect agonistic: serotonin-mimetic contraction. From the text:
B.) Investigation of the serotonin-agonistic/antagonistic action
To this purpose, the action on the contraction, caused by serotonin, of the arteria basilaris of the dog is investigated [cf. Peroutka et al., Brain Research 259, 327 (1983)].
In this test model, an agonistic action can be detected by the serotonin-mimetic action (contraction).

As to `CCCN(CCN(CC)CC)C1CCc2cccc(OC)c2C1` (stereo not drawn) [Example 20, 2-[N-(2-Diethylaminoethyl)-N-propyl]amino-8-methoxy-1,2,3,4-tetrahydronaphthalene dihydrochloride], the Ki at 5-HT1 receptor turned out to be 11 nM. Compound `CCCN(CCNC(=O)OCC)C1CCc2cccc(OC)c2C1` (stereo not drawn) [Example 22, 2-[N-(2-Ethoxycarbonylamido-ethyl)-N-propyl]amino-8-methoxy-1,2,3,4-tetrahydronaphthalene hydrochloride] showed a Ki on 5-HT1 receptor of 3 nM. Also, the Effect antagonistic in assay [1] came to 0. At 5-HT1 receptor, `CCCN(CC#N)C1CCc2cccc(OC)c2C1` (stereo not drawn) [Example 26, 2-(N-Cyanomethyl-N-propyl)amino-8-methoxy-1,2,3,4-tetrahydronaphthalene hydrochloride] showed a Ki of 2 nM.

In turn, `CCCN(CCCCN1C(=O)c2ccccc2S1(=O)=O)C1CCc2cccc(OC)c2C1.Cl` (stereo not drawn) [Example 34, 2-{4-[N-(8-Methoxy-1,2,3,4-tetrahydro-2-naphthyl)-N-propyl-amino]butyl}-1,2-benzisothiazol-3(2H)-one 1,1-dioxide hydrochloride] displayed an inhibition constant (Ki) at 5-HT1 receptor of 1 nM. In assay [1], this compound came in with an Effect agonistic of 0. Compound `CCCN(CCO)C1CCc2cccc(OC)c2C1` (stereo not drawn) [Example 42, 2-[N-(2-Hydroxyethyl)-N-propyl]amino-8-methoxy-1,2,3,4-tetrahydronaphthalene] showed a Ki on 5-HT1 receptor of 4 nM. In the case of `CCCN(CCNS(=O)(=O)c1ccc(C)cc1)C1CCc2cccc(OC)c2C1` (stereo not drawn) [Example 45, 8-Methoxy-2-{N-[2-(4-toluene-sulphonamido)ethyl]-N-propyl}amino-1,2,3,4-tetrahydronaphthalene hydrochloride], the Ki on 5-HT1 receptor came to 1 nM. The Effect agonistic in assay [1] is reported as 0. Compound `CCCN(CCN1CCCCS1(=O)=O)C1CCc2cccc(OC)c2C1` (stereo not drawn) [Example 58, 2-[2-N-Propyl-N-(8-methoxy-1,2,3,4-tetrahydro-2-naphthyl)-amino]ethyl-perhydro-1,2-thiazine 1,1-dioxide hydrochloride] displayed an inhibition constant (Ki) at 5-HT1 receptor of 4 nM. The same measure, in the same setting: the result for `CCCN(CCCNC(=O)c1cccnc1)C1CCc2cccc(OC)c2C1` (stereo not drawn) [Example 62, dihydrochloride] reads 4 nM.

On to `CCCN(CCC)C1CCc2cccc(O)c2C1` (stereo not drawn) [R^1 = H, R^2 = nC3 H7, R^3 = nC3 H7, reference compound], for which the Effect antagonistic in assay [1] is given as 0.
